Like-named read-outs stand apart in the source and are kept apart here.
Experiments:
Assay type in all cases: cell-based
Rhynchosporium secalis = experiment: Plate medium fungicidal assay, barley leaf blotch R.sec (Experimental Example 5); details: for inhibition at 5 µg/mL / inhibition at 50 µg/mL: Rhynchosporium secalis
Procedure, shortened: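 Compound in DMSO mixed into PDA plate medium at 50 mg/L and 5 mg/L; 4 mm mycelial plug of the fungus inoculated. Colony diameter compared with untreated plates gives % mycelial growth inhibition R=100(dc−dt)/dc, scored on a 5-grade scale.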

Pyricularia oryzae = experiment: microbe, parasite or virus in culture; details: for inhibition at 5 µg/mL / inhibition at 50 µg/mL: Pyricularia oryzae; for Growth inhibition grade, P.o: plate medium
Fusarium graminearum = experiment: microbe, parasite or virus in culture; details: for inhibition at 5 µg/mL / inhibition at 50 µg/mL: Fusarium graminearum; for Growth inhibition grade, F.g: plate medium
Sclerotinia sclerotiorum = experiment: Plate medium fungicidal assay, Sclerotinia rot S.s (Experimental Example 5); details: for inhibition at 5 µg/mL / inhibition at 50 µg/mL: Sclerotinia sclerotiorum
Procedure, shortened: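 A 4 mm mycelial plug was placed on PDA plates containing compound at 50 mg/L and 5 mg/L, added from DMSO solution. Colony diameters were compared with untreated plates, % mycelial growth inhibition was R=100(dc−dt)/dc, and scores fell into 5 grades.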

Giberella fujikuroi = experiment: Plate medium fungicidal assay, rice bakanae disease G.f (Experimental Example 5)
Procedure, shortened: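 Gibberella fujikuroi mycelial plugs (4 mm) placed on PDA plates containing compound at 50 mg/L and 5 mg/L, added from DMSO solution. Colony diameter compared with untreated plates as % inhibition = 100(dc−dt)/dc, then scored in 5 grades.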

[1] = tested on: Pseudocercoporella herpotrichoides; experiment: Plate medium fungicidal assay, wheat eye spot P.h (Experimental Example 5)
Procedure, shortened: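 Compound in DMSO mixed into PDA agar for plates at 50 mg/L and 5 mg/L, inoculated with a 4 mm mycelial plug of Pseudocercosporella herpotrichoides. Colony diameter compared with untreated plates: % mycelial growth inhibition = 100(dc−dt)/dc, scored on a 5-grade scale.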

Botritis cinerea = experiment: Plate medium fungicidal assay, gray mold B.c (Experimental Example 5)
Procedure, shortened: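 Compounds in DMSO were incorporated into PDA plate medium at 50 mg/L and 5 mg/L, then inoculated with 4 mm mycelial plugs of Botrytis cinerea. Colony diameter versus untreated plates gave % mycelial growth inhibition, R=100(dc−dt)/dc, scored on a 5-grade scale.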

[2] = plate medium containing compound at 5 mg/L, read-out: Growth inhibition grade, R.sec
[3] = plate medium containing compound at 50 mg/L, read-out: Growth inhibition grade, R.sec
[4] = plate medium, 5 mg/L, read-out: growth inhibition grade R.sec
[5] = plate medium, 50 mg/L, read-out: growth inhibition grade R.sec
[6] = read-out: Growth inhibition grade, P.o
[7] = read-out: growth inhibition grade P.o
[8] = read-out: Growth inhibition grade, F.g
[9] = read-out: growth inhibition grade F.g
[10] = plate medium containing compound at 5 mg/L, read-out: Growth inhibition grade, S.s
[11] = plate medium containing compound at 50 mg/L, read-out: Growth inhibition grade, S.s
[12] = plate medium, 5 mg/L, read-out: growth inhibition grade S.s
[13] = plate medium, 50 mg/L, read-out: growth inhibition grade S.s
[14] = plate medium containing compound at 5 mg/L, read-out: Growth inhibition grade, G.f
[15] = plate medium containing compound at 50 mg/L, read-out: Growth inhibition grade, G.f
[16] = plate medium, 5 mg/L, read-out: growth inhibition grade G.f
[17] = plate medium, 50 mg/L, read-out: growth inhibition grade G.f
[18] = plate medium containing compound at 5 mg/L, read-out: Growth inhibition grade, P.h
[19] = plate medium containing compound at 50 mg/L, read-out: Growth inhibition grade, P.h
[20] = plate medium, 5 mg/L, read-out: growth inhibition grade P.h
[21] = plate medium, 50 mg/L, read-out: growth inhibition grade P.h
[22] = plate medium containing compound at 5 mg/L, read-out: Growth inhibition grade, B.c
[23] = plate medium containing compound at 50 mg/L, read-out: Growth inhibition grade, B.c
[24] = plate medium, 5 mg/L, read-out: growth inhibition grade B.c
[25] = plate medium, 50 mg/L, read-out: growth inhibition grade B.c

Compound | inhibition at 5 µg/mL (Rhynchosporium secalis; [2]) | inhibition at 50 µg/mL (Rhynchosporium secalis; [3]) | inhibition at 5 µg/mL (Rhynchosporium secalis; [4]) | inhibition at 50 µg/mL (Rhynchosporium secalis; [5]) | inhibition at 5 µg/mL (Pyricularia oryzae; [6]) | inhibition at 50 µg/mL (Pyricularia oryzae; [6]) | inhibition at 5 µg/mL (Pyricularia oryzae; [7]) | inhibition at 50 µg/mL (Pyricularia oryzae; [7]) | inhibition at 5 µg/mL (Fusarium graminearum; [8]) | inhibition at 50 µg/mL (Fusarium graminearum; [8]) | inhibition at 5 µg/mL (Fusarium graminearum; [9]) | inhibition at 50 µg/mL (Fusarium graminearum; [9]) | inhibition at 5 µg/mL (Sclerotinia sclerotiorum; [10]) | inhibition at 50 µg/mL (Sclerotinia sclerotiorum; [11]) | inhibition at 5 µg/mL (Giberella fujikuroi; [14]) | inhibition at 50 µg/mL (Giberella fujikuroi; [15]) | inhibition at 5 µg/mL [1, 18] | inhibition at 50 µg/mL [1, 19] | inhibition at 5 µg/mL (Botritis cinerea; [22]) | inhibition at 50 µg/mL (Botritis cinerea; [23]) | other results
C[C@]1(CCl)CC[C@@H](Cc2ccc(F)cc2)[C@]1(O)Cn1cncn1 (racemic) [Compound I-77, (1RS,2SR,5SR)-2-chloromethyl-5-(4-fluorobenzyl)-2-methyl-1-(1H-1,2,4-triazol-1-ylmethyl)cyclopentanol] | > 80% | > 80% | > 80% | > 80% | > 80% | > 80% | > 80% | > 80% | > 80% | > 80% | > 80% | > 80% | > 80% | > 80% | > 80% | > 80% | > 80% | > 80% | > 80% | > 80% | inhibition at 5 µg/mL (Sclerotinia sclerotiorum; [12]): > 80%; inhibition at 50 µg/mL (Sclerotinia sclerotiorum; [13]): > 80%; inhibition at 5 µg/mL (Giberella fujikuroi; [16]): > 80%; inhibition at 50 µg/mL (Giberella fujikuroi; [17]): > 80%; inhibition at 5 µg/mL [1, 20]: > 80%; inhibition at 50 µg/mL [1, 21]: > 80%; inhibition at 5 µg/mL (Botritis cinerea; [24]): > 80%; inhibition at 50 µg/mL (Botritis cinerea; [25]): > 80%
C[C@]1(CBr)CC[C@@H](Cc2ccc(Cl)cc2)[C@]1(O)Cn1cncn1 (racemic) [Compound I-25, (1RS,2SR,5SR)-2-bromomethyl-5-(4-chlorobenzyl)-2-methyl-1-(1H-1,2,4-triazol-1-ylmethyl)cyclopentanol] | > 80% | > 80% |  |  | > 80% | > 80% |  |  | > 80% | > 80% |  |  | > 80% | > 80% | > 80% | > 80% | 40 to 60% | > 80% | > 80% | > 80% | 
C[C@]1(CCl)CC[C@@H](Cc2ccccc2)[C@]1(O)Cn1cncn1 (racemic) [Compound I-73, (1RS,2SR,5SR)-2-chloromethyl-5-benzyl-2-methyl-1-(1H-1,2,4-triazol-1-ylmethyl)cyclopentanol] | > 80% | > 80% | > 80% | > 80% | > 80% | > 80% | > 80% | > 80% | > 80% | > 80% | > 80% | > 80% | > 80% | > 80% | > 80% | > 80% | > 80% | > 80% | > 80% | > 80% | inhibition at 5 µg/mL (Sclerotinia sclerotiorum; [12]): > 80%; inhibition at 50 µg/mL (Sclerotinia sclerotiorum; [13]): > 80%; inhibition at 5 µg/mL (Giberella fujikuroi; [16]): > 80%; inhibition at 50 µg/mL (Giberella fujikuroi; [17]): > 80%; inhibition at 5 µg/mL [1, 20]: > 80%; inhibition at 50 µg/mL [1, 21]: > 80%; inhibition at 5 µg/mL (Botritis cinerea; [24]): > 80%; inhibition at 50 µg/mL (Botritis cinerea; [25]): > 80%
O[C@]1(Cn2cncn2)[C@H](Cc2ccc(Cl)cc2)CCC1(CCl)CCl (relative stereo) [Compound I-203, cis-5-(4-chlorobenzyl)-2,2-bis(chloromethyl)-1-(1H-1,2,4-triazol-1-yl)methylcyclopentanol] |  |  |  |  |  |  |  |  |  |  |  |  |  |  |  |  |  |  |  |  | Growth inhibition grade, R.sec (Rhynchosporium secalis; plate medium, 5 mg/L): 5 (% Mycerial growth inhibition of 80% or higher); Growth inhibition grade, R.sec (Rhynchosporium secalis; plate medium, 50 mg/L): 5 (% Mycerial growth inhibition of 80% or higher); Growth inhibition grade, P.o (Pyricularia oryzae; 5 mg/L): 5 (% Mycerial growth inhibition of 80% or higher); Growth inhibition grade, P.o (Pyricularia oryzae; 50 mg/L): 5 (% Mycerial growth inhibition of 80% or higher); Growth inhibition grade, F.g (Fusarium graminearum; 5 mg/L): 5 (% Mycerial growth inhibition of 80% or higher); Growth inhibition grade, F.g (Fusarium graminearum; 50 mg/L): 5 (% Mycerial growth inhibition of 80% or higher); Growth inhibition grade, S.s (Sclerotinia sclerotiorum; plate medium, 5 mg/L): 5 (% Mycerial growth inhibition of 80% or higher); Growth inhibition grade, S.s (Sclerotinia sclerotiorum; plate medium, 50 mg/L): 5 (% Mycerial growth inhibition of 80% or higher); Growth inhibition grade, G.f (Giberella fujikuroi; plate medium, 5 mg/L): 5 (% Mycerial growth inhibition of 80% or higher); Growth inhibition grade, G.f (Giberella fujikuroi; plate medium, 50 mg/L): 5 (% Mycerial growth inhibition of 80% or higher); Growth inhibition grade, P.h ([1]; plate medium, 5 mg/L): 5 (% Mycerial growth inhibition of 80% or higher); Growth inhibition grade, P.h ([1]; plate medium, 50 mg/L): 5 (% Mycerial growth inhibition of 80% or higher); Growth inhibition grade, B.c (Botritis cinerea; plate medium, 5 mg/L): 5 (% Mycerial growth inhibition of 80% or higher); Growth inhibition grade, B.c (Botritis cinerea; plate medium, 50 mg/L): 5 (% Mycerial growth inhibition of 80% or higher)
O[C@]1(Cn2cncn2)[C@H](Cc2ccc(Cl)cc2)CC[C@@H]1C(F)(F)F (racemic) [Compound I-65, (1RS,2SR,5SR)-5-(4-chlorobenzyl)-2-trifluoromethyl-1-(1H-1,2,4-triazol-1-ylmethyl)cyclopentanol] | 40 to 60% | > 80% |  |  | 40 to 60% | > 80% |  |  | 60 to 80% | > 80% |  |  | 40 to 60% | > 80% | 60 to 80% | > 80% | 40 to 60% | > 80% | 60 to 80% | > 80% | 
C[C@]1(CCl)CC[C@H](Cc2cccc(Cl)c2)[C@]1(O)Cn1cncn1 (relative stereo) [Compound I-374] |  |  |  |  |  |  |  |  |  |  |  |  |  |  |  |  |  |  |  |  | Growth inhibition grade, R.sec (Rhynchosporium secalis; plate medium, 5 mg/L): 5 (% Mycerial growth inhibition of 80% or higher); Growth inhibition grade, R.sec (Rhynchosporium secalis; plate medium, 50 mg/L): 5 (% Mycerial growth inhibition of 80% or higher); Growth inhibition grade, P.o (Pyricularia oryzae; 5 mg/L): 5 (% Mycerial growth inhibition of 80% or higher); Growth inhibition grade, P.o (Pyricularia oryzae; 50 mg/L): 5 (% Mycerial growth inhibition of 80% or higher); Growth inhibition grade, F.g (Fusarium graminearum; 5 mg/L): 5 (% Mycerial growth inhibition of 80% or higher); Growth inhibition grade, F.g (Fusarium graminearum; 50 mg/L): 5 (% Mycerial growth inhibition of 80% or higher); Growth inhibition grade, S.s (Sclerotinia sclerotiorum; plate medium, 5 mg/L): 5 (% Mycerial growth inhibition of 80% or higher); Growth inhibition grade, S.s (Sclerotinia sclerotiorum; plate medium, 50 mg/L): 5 (% Mycerial growth inhibition of 80% or higher); Growth inhibition grade, G.f (Giberella fujikuroi; plate medium, 5 mg/L): 5 (% Mycerial growth inhibition of 80% or higher); Growth inhibition grade, G.f (Giberella fujikuroi; plate medium, 50 mg/L): 5 (% Mycerial growth inhibition of 80% or higher); Growth inhibition grade, P.h ([1]; plate medium, 5 mg/L): 5 (% Mycerial growth inhibition of 80% or higher); Growth inhibition grade, P.h ([1]; plate medium, 50 mg/L): 5 (% Mycerial growth inhibition of 80% or higher); Growth inhibition grade, B.c (Botritis cinerea; plate medium, 5 mg/L): 5 (% Mycerial growth inhibition of 80% or higher); Growth inhibition grade, B.c (Botritis cinerea; plate medium, 50 mg/L): 5 (% Mycerial growth inhibition of 80% or higher)

Reference: patent US9145351B2, “Azole derivatives, methods for producing the same, intermediate thereof, agro-horticultural agents” (KUREHA CORPORATION, priority 2009, dated 2015)
